The values that follow come from article PMC6993142 (Journal of natural products, 2017).

Data set [1] can be described thus: MTS dye cytotoxicity assay, whole panel. It counts as cell-based. The following applies: human.
Data set [2] relates to A549, Hep G2, Hep 3B, MCF-7 and MDA-MB-231 cell lines. To be noted: MCF-7, MDA-MB-231, ref 11f; cited from earlier work.
The subject of data set [3] is RC cells (ACHN, Caki-1, and SN-12-C). To be noted: in the presence of TRAIL; cited from earlier work.
The subject of data set [4] is ACHN (human renal adenocarcinoma). Briefly: MTS dye cytotoxicity assay, ACHN. It counts as cell-based. To be noted: of the 26 withanolides tested.
A short description of data set [5]: MTS dye cytotoxicity assay, normal HFF cells. Type of data set: cell-based. The following applies: human, HFF cells (normal foreskin fibroblasts).
Data set [6] relates to LNCaP (androgen-sensitive human prostate adenocarcinoma). Briefly: MTS dye cytotoxicity assay, LNCaP. Type of data set: cell-based. The following applies: for IC50: Homo sapiens, LNCaP, 72 h, read-out: Cytotoxicity IC50, LNCaP, LNCaP, 72 h, MTS.
For data set [7] the test system is unchanged. To be noted: previously shown; cited from earlier work.
For data set [8], the system named is MCF-7, MDA-MB-231, H1299, Ca9–22 and HT-29 cells. The following applies: MCF-7, MDA-MB-231, H1299, Ca9–22, HT-29; ref 11j, 11h, 11k, 11n; cited from earlier work.

Take `C[C@H]1C(=O)OC[C@H]1C[C@@H](O)[C@](C)(O)[C@]1(O)CC[C@@]2(O)[C@@H]3CC=C4CC=CC(=O)[C@]4(C)[C@H]3CC[C@]12C` [Compound 24, perulactone B]: the half-maximal inhibitory concentration (IC50) at 72 h in data set [1] was above 5000 nM.

On to `CC1=C(C)C(=O)O[C@@H]([C@](C)(O)C2=CC[C@@]3(O)[C@@H]4C[C@H]5O[C@]56[C@@H](O)C=CC(=O)[C@]6(C)[C@H]4CC[C@]23C)C1` [Compound 14, phyperunolide A], for which, in data set [2], the “Cytotoxic to cancer cell lines” value is listed as “cytotoxic”. For the same compound, the 50% inhibitory concentration (IC50) at 72 h in data set [1] was above 5000 nM.

For the compound `CC1=C(C)C(=O)O[C@@H]([C@](C)(O)[C@]2(O)CC[C@@]3(O)[C@@H]4C[C@H]5O[C@]56CC=CC(=O)[C@]6(C)[C@H]4CC[C@]23C)C1` [Compound 13, withanolide E], the “Cytotoxic to cancer cell lines” value in data set [2] was “cytotoxic”. For the same compound, in data set [3], the “Long-term survival of RC cells” value was “eliminate long-term survival”. Moreover, in data set [4], the “Selectivity for renal carcinoma (ACHN) cells” value (from here on “Selectivity”) is reported as “showed selectivity”. Moreover, in data set [5], the 50% inhibitory concentration (IC50) at 72 h was above 2000 nM.

Compound `C[C@H]1C[C@H]([C@](C)(O)[C@]2(O)CC[C@@]3(O)[C@@H]4C[C@H]5O[C@]56CC=CC(=O)[C@]6(C)[C@H]4CC[C@]23C)OC(=O)[C@@H]1C` [Compound 11, (20S,22R,24S,25R)-5β,6β-epoxy-14α,17β,20-trihydroxy-1-oxowitha-2-enolide] showed an IC50 at 72 h in data set [5] above 2000 nM.

For the compound `CC1=C(C)C(=O)O[C@@H]([C@](C)(O)[C@]2(O)CC[C@@]3(O)[C@@H]4C[C@@H](O)[C@@]5(Cl)CC=CC(=O)[C@]5(C)[C@H]4CC[C@]23C)C1` [Compound 27, withanolide C, reference compound], in data set [2], the “Cytotoxic to cancer cell lines” value is “cytotoxic”.

In data set [1], `C[C@H]1C(=O)O[C@@H]([C@](C)(O)[C@H]2CC[C@@]3(O)[C@@H]4CC=C5CC=CC(=O)[C@]5(C)[C@H]4CC[C@]23C)[C@@H](O)[C@@H]1CO` [Compound 10, (20S,22R)-14α,20,23β,28-tetrahydroxy-1-oxowitha-2,5-dienolide] gave an IC50 at 72 h above 5000 nM.

The compound `CC1=C(C)[C@H](O)[C@H]([C@](C)(O)[C@]2(O)CC[C@@]3(O)[C@@H]4C[C@H]5O[C@]56CC=CC(=O)[C@]6(C)[C@H]4CC[C@]23C)OC1=O` [Compound 6, (20S,22R)-5β,6β-epoxy-14α,17β,20,23β-tetrahydroxy-1-oxowitha-2,24-dienolide] had a concentration for half-maximal inhibition (IC50) at 72 h in data set [5] above 2000 nM.

Turning to `CC(=O)OC[C@]12CC[C@H]3[C@@H](C[C@H]4O[C@]45CC=CC(=O)[C@]35C)[C@]1(O)CC[C@@]2(O)[C@@](C)(O)[C@H]1CC(C)=C(C)C(=O)O1` [Compound 26, Physachenolide C, reference compound], the “Selectivity” value in data set [4] is on record as “showed selectivity”. Moreover, the “Enhancement of activity (26 vs 13)” value in data set [6] (LNCaP cells, acetoxylation at C-18) was determined as 3 fold. This compound yielded an IC50 at 72 h in data set [5] above 2000 nM. In data set [7], the “Activity for LNCaP cells” value was “selective and potent activity”.

The compound `CC1=C(C)C(=O)O[C@@H]([C@](C)(O)C2=CC[C@@]3(O)[C@@H]4C[C@H]5O[C@]56CC=CC(=O)[C@]6(C)[C@H]4CC[C@]23C)C1` [Compound 7, (20S,22R)-5β,6β-epoxy-14α,20-dihydroxy-1-oxowitha-2,16,24-trienolide] came in with an IC50 at 72 h in data set [1] above 5000 nM.

For the compound `CC1=C(C)C(=O)O[C@@H]([C@](C)(O)[C@]2(O)CC[C@@]3(O)[C@@H]4CC=C5[C@@H](O)C=CC(=O)[C@]5(C)[C@H]4CC[C@]23C)C1` [Compound 20, physapruin A], in data set [4], the “Selectivity” value is “showed selectivity”. In data set [5], the IC50 at 72 h was above 2000 nM.

With `CC1=C(C)C(=O)O[C@@H]([C@](C)(O)[C@]2(O)CC[C@@]3(O)[C@@H]4C[C@H]5O[C@]56[C@@H](O)C=CC(=O)[C@]6(C)[C@H]4CC[C@]23C)C1` [Compound 12, 4β-hydroxywithanolide E], the “Cytotoxic to cancer cell lines” value in data set [2] is on record as “cytotoxic”. Besides, the Inhibition of proliferation result in data set [8] is “inhibit proliferation”. Also, the IC50 at 72 h in data set [5] is above 2000 nM.

With `CC1=C(C)C(=O)O[C@@H]([C@](C)(O)[C@]2(O)CC[C@@]3(O)[C@@H]4C[C@H](Cl)[C@]5(O)CC=CC(=O)[C@]5(C)[C@H]4CC[C@]23C)C1` [Compound 23, 4-deoxyphysalolactone], in data set [1], the concentration for half-maximal inhibition (IC50) at 72 h was above 5000 nM.

In turn, `CC1=C(C)C(=O)O[C@@H]([C@](C)(O)[C@]2(O)CC[C@@]3(O)[C@@H]4C[C@H](Cl)[C@]5(O)[C@@H](O)C=CC(=O)[C@]5(C)[C@H]4CC[C@]23C)C1` [Compound 17, physalolactone] yielded an IC50 at 72 h in data set [1] above 5000 nM.

For `CC1=C(C)C(=O)O[C@@H]([C@](C)(O)[C@]2(O)CC[C@@]3(O)[C@@H]4[C@@H](O)[C@H]5O[C@]56CC=CC(=O)[C@]6(C)[C@H]4CC[C@]23C)C1` [Compound 19, withaperuvin L], the IC50 at 72 h in data set [5] is above 2000 nM.

`CC1=C(CO)C[C@H]([C@](C)(O)[C@]2(O)CC[C@@]3(O)[C@@H]4CC=C5CC=CC(=O)[C@]5(C)[C@H]4CC[C@]23C)OC1=O` [Compound 21, withaperuvin J]: in data set [5], the IC50 at 72 h is above 2000 nM.

In the case of `CC1=C(C)C(=O)O[C@@H]([C@](C)(O)[C@]2(O)CC[C@@]3(O)[C@@H]4[C@@H](O)C=C5C=CCC(=O)[C@]5(C)[C@H]4CC[C@]23C)C1` [Compound 9, (20S,22R)-7β,14α,17β,20-tetrahydroxy-1-oxowitha-3,5,24-trienolide], in data set [6], the IC50 was below 2000 nM. The compound also gave an IC50 at 72 h in data set [5] above 2000 nM.

The compound `CO[C@]12CC=CC(=O)[C@]1(C)[C@H]1CC[C@]3(C)[C@](O)([C@@](C)(O)[C@H]4CC(C)=C(C)C(=O)O4)CC[C@@]3(O)[C@@H]1C[C@H]2O` [Compound 16, withanolide S 5-methyl ether] gave an IC50 at 72 h in data set [1] above 5000 nM.

For `CO[C@H]1C=CC(=O)[C@]2(C)[C@H]3CC[C@]4(C)[C@](O)([C@@](C)(O)[C@H]5CC(C)=C(C)C(=O)O5)CC[C@@]4(O)[C@@H]3C[C@H]3O[C@]132` [Compound 15, withangulatin E], the IC50 in data set [6] was below 2000 nM. The compound also displayed an IC50 at 72 h in data set [5] above 2000 nM.

For the compound `CC1=C(C)C(=O)O[C@@H]([C@](C)(O)[C@]2(O)CC[C@@]3(O)[C@@H]4C[C@@H](O)[C@@]5(O)CC=CC(=O)[C@]5(C)[C@H]4CC[C@]23C)C1` [Compound 18, withanolide S], in data set [1], the IC50 at 72 h is above 5000 nM.

The compound `C[C@H]1C(=O)OC[C@H]1C[C@@H](O)[C@](C)(O)[C@@]1(O)CC[C@@]2(O)[C@@H]3CC=C4CC=CC(=O)[C@]4(C)[C@H]3CC[C@]12C` [Compound 25, perulactone H] showed a concentration for half-maximal inhibition (IC50) at 72 h in data set [1] above 5000 nM.

In data set [5], `CC1=C(C)C(=O)O[C@@H]([C@](C)(O)[C@]2(O)CC[C@@]3(O)[C@@H]4CC=C5CC=CC(=O)[C@]5(C)[C@H]4CC[C@]23C)C1` [Compound 22, withanolide F] showed an IC50 at 72 h above 2000 nM.

Regarding `CC1=C(C)C(=O)O[C@@H]([C@](C)(O)[C@]2(O)CC[C@@]3(O)[C@@H]4[C@@H](O)C=C5CC=CC(=O)[C@]5(C)[C@H]4CC[C@]23C)C1` [Compound 8, (20S,22R)-7β,14α,17β,20-tetrahydroxy-1-oxowitha-2,5,24-trienolide], the IC50 in data set [6] is below 2000 nM. The compound further registered an IC50 at 72 h in data set [5] above 2000 nM.
